Reference: ChEMBL document CHEMBL1201862, “PubChem BioAssay data set” (2004)
One block for each molecule: values may come before it. Activity calls are given as the source filed them.

Experiments:
[1] = test system: INS1; experiment: beta cell apoptosis inhibitors, cytokine rescue, dose response, luminescence, retest (AID 449756); type: functional, cell-based; conditions: Rattus norvegicus;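 further: cell death triggered by IL-1 beta plus TNF-alpha plus IFN-gamma mixture; protective hits raise ATP signal compared with cytokine alone wells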
[2] = C. albicans growth with fluconazole, confirmation, fluorescence, retest (AID 2467); type: functional, cell-based
[3] = NIH-3T3 fibroblast cytotoxicity, dose response, cytotoxicity control, cell-based, fluorescence, Alamar Blue, secondary assay (AID 2327); type: functional;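 further: NIH-3T3 mouse fibroblasts cultured with fluconazole at 8 µg/mL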
[4] = target: Cytochrome P450 3A4 (Homo sapiens, UniProt P08684);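 further: CYP3A4 tested as one member of a cytochrome P450 panel screen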
[5] = target: Cytochrome P450 2C19 (Homo sapiens, UniProt P33261); experiment: Cytochrome panel assay with activity outcomes. Panel member name: p450-cyp2c19 Compounds with AC50 equal or less than 10 uM are considered active; type: functional; conditions: read-out: AC50
[6] = test system: H9c2; experiment: cells; type: functional, cell-based; conditions: Rattus norvegicus, H9c2, Myocardium;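 further: confirmatory concentration-response retest of ultra-high-throughput screening hits for modulation of myocardial damage; cell death induced by hydrogen peroxide oxidative stress; compound pretreatment for 60 min then peroxide exposure for 2 h; potency is for protecting the cells against peroxide damage rather than for killing them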
[7] = HEp-2 cell cytotoxicity, dose response, cytotoxicity control for RSV inhibitor project, HTS (AID 2410); type: functional; conditions: human respiratory syncytial virus
[8] = target: FAD-linked sulfhydryl oxidase ALR (Homo sapiens, UniProt P55789); experiment: inhibitors of human ALR sulfhydryl oxidase, dose response, biochemical, H2O2 detection, luminescence, cherry-pick (AID 493248)
[9] = target: T1, Corticotropin-releasing factor receptor 2/Corticotropin-releasing factor-binding protein (Homo sapiens, UniProt P24387+Q13324); experiment: activators of CRF receptor 2 with binding protein – uHTS hits, confirmation (AID 602473); type: functional; conditions: read-out: EC50_Mean
T1 sequence (Q13324 whole entry): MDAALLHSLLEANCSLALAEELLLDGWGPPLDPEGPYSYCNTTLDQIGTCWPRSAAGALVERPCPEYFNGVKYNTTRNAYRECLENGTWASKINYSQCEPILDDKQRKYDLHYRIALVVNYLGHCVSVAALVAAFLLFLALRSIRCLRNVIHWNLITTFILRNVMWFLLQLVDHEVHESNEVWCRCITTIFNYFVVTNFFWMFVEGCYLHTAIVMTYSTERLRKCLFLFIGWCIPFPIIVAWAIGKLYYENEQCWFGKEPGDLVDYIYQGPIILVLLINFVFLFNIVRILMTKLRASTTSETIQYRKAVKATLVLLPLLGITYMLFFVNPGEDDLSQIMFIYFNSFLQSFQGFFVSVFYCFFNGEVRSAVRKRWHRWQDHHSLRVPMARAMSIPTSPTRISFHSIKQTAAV
T1 sequence (P24387 whole entry): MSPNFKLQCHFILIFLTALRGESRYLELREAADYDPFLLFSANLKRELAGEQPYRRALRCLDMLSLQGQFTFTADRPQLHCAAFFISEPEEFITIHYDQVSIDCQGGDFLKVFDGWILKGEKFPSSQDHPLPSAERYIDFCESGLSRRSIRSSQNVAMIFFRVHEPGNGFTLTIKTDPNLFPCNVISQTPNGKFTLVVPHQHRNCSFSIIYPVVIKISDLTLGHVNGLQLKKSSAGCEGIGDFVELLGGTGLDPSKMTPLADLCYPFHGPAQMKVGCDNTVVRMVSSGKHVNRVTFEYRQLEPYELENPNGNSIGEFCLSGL

[10] = target: T1, Corticotropin-releasing factor receptor 2/Corticotropin-releasing factor-binding protein; experiment: Dose Response confirmation of uHTS hits for small molecule antagonists of the CRF-binding protein and CRF-R2 receptor complex.; type: functional; conditions: read-out: IC50_Mean
[11] = target: T2, Cytochrome P450 1A2 (Homo sapiens, UniProt P05177);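 further: PubChem cytochrome P450 panel assay, CYP1A2 panel member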
T2 sequence (P05177 whole entry): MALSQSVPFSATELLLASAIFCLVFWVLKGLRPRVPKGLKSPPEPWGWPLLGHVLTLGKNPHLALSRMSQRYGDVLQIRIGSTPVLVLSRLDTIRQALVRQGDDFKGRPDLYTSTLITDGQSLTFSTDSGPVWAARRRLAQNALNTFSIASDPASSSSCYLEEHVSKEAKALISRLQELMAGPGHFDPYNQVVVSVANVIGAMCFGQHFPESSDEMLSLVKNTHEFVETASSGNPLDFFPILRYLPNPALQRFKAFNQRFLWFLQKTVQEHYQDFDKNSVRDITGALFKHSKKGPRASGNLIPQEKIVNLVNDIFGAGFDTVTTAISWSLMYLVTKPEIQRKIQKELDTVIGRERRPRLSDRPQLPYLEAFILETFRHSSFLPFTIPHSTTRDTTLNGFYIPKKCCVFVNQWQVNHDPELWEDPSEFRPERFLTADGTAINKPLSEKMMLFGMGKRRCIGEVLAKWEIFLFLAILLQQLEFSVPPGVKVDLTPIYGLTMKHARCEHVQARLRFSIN

[12] = target: Cytochrome P450 2D6 (Homo sapiens, UniProt P10635);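 further: CYP2D6 member of a cytochrome P450 panel assay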
[13] = target: Cytochrome P450 2C9 (Homo sapiens, UniProt P11712)
Cytochrome P450 2C9, sequence (P11712 whole entry): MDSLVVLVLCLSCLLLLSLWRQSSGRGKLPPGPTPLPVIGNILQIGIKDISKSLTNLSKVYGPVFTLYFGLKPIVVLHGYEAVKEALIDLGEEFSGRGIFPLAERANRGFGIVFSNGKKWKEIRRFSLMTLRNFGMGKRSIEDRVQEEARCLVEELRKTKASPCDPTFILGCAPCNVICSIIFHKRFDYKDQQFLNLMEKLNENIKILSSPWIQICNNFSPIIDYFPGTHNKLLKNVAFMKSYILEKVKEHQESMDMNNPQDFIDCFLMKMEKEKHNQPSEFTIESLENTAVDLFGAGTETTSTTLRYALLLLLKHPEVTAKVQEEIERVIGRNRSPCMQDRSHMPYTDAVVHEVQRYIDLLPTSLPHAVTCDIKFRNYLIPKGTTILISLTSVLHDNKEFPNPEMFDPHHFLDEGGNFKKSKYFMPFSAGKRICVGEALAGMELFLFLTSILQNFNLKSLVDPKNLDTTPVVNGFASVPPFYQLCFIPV

FAD-linked sulfhydryl oxidase ALR, sequence (P55789 whole entry): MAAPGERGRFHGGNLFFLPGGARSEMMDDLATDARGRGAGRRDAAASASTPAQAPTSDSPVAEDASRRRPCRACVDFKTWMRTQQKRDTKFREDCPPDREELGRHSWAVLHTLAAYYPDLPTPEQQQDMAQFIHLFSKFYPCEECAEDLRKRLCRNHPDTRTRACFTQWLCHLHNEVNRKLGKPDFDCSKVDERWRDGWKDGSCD
Cytochrome P450 3A4, sequence (P08684 whole entry): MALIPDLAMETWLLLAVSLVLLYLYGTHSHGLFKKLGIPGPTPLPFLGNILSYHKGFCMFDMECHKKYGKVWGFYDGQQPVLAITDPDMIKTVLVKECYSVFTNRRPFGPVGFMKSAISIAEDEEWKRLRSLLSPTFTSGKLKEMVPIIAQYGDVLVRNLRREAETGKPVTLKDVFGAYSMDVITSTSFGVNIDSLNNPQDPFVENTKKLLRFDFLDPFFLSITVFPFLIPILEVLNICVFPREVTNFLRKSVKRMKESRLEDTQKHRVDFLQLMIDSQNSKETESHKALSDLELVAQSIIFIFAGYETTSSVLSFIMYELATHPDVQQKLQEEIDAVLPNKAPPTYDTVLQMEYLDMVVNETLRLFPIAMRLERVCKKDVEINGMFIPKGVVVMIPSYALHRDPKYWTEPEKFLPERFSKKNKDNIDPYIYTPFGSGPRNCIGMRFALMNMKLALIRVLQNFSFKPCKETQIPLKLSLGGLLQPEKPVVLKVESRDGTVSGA
Cytochrome P450 2C19, sequence (P33261 whole entry): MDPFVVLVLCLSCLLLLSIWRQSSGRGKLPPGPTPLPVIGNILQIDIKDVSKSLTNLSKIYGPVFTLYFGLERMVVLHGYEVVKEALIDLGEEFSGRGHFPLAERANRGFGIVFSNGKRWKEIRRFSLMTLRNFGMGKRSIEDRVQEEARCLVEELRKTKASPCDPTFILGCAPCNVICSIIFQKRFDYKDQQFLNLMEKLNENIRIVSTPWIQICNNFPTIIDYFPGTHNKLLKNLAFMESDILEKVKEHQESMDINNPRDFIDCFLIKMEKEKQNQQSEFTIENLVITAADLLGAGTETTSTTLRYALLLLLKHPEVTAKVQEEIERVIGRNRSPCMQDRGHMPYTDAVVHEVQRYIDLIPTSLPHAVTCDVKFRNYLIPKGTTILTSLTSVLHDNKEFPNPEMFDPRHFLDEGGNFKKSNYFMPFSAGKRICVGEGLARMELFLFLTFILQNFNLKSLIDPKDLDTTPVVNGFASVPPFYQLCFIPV
Cytochrome P450 2D6, sequence (P10635 whole entry): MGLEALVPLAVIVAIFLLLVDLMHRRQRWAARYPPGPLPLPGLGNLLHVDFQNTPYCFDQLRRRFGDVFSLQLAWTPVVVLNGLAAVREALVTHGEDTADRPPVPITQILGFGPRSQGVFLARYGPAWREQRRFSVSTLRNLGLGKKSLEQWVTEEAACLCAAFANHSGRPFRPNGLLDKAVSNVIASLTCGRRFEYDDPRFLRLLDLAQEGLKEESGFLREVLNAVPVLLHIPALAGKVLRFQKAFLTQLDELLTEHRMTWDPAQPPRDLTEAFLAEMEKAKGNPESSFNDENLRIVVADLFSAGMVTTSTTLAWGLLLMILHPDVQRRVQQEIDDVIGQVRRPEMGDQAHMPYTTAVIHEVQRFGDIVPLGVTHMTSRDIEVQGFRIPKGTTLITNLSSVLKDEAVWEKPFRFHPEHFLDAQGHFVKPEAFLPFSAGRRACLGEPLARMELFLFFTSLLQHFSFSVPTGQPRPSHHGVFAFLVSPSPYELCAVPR

SMILES: CN1/C(=C\C(=O)C[n+]2ccc(C(=O)c3ccccc3)cc2)C(C)(C)c2ccccc21
- AC50 [1]: 2.42 µM (active)
- EC50 [2]: 3.12 µM (active)
- EC50 [3]: > 150 µM (inactive)

- AC50 [4]: 15.8 µM (inconclusive)
- AC50 [5]: 3.16 µM (inconclusive)
SMILES: COc1ccccc1Nc1nc(-c2sc(NC(=O)c3ccccc3)nc2C)cs1

SMILES: Cc1cc(Nc2ccccc2C(=O)O)nc2nc3ccccc3c(=O)n12
- IC50 [6]: 14.2 µM (active)

SMILES: Cc1cccc(C)c1NC(=O)c1c(C)nn(-c2ccccc2)c1Cl
- CC50 [7]: 42.5 µM (active)

SMILES: CN(C(=O)CSc1nnc(-c2ccco2)o1)C1CCCCC1
- EC50 [2]: 5.16 µM (active)
- EC50 [3]: > 160 µM (inactive)

- AC50 [8]: 1.41 µM (active)
SMILES: Cc1cc(Nc2ccccc2)n(-c2ccc(C(=O)O)cc2)n1

SMILES: Cc1cc(-n2c(SCC(=O)Nc3ccc(F)c(F)c3)nc3nnc(C)c-3c2N)ccc1Cl
- AC50 [1]: 5.57 µM (active)

SMILES: Cc1ccc(C(=O)OCC(=O)Nc2sccc2C(N)=O)cc1NC(=O)c1ccco1
- IC50 [6]: > 79 µM (inactive)

- EC50 [9]: > 53 µM (inactive)
- IC50 [10]: 5.03 µM (active)
SMILES: COC(=O)c1cc(C#N)c(N(C)Cc2ccccc2)nc1C

- AC50 [8]: > 100 µM (inactive)
SMILES: COC(=O)[C@H](Cc1ccccc1)NC(=O)N1CCN(c2ccc(F)cc2)CC1

SMILES: CCn1c(SCC(=O)Nc2cccc(C)c2)nc2ccccc2c1=O
- CC50 [7]: > 50 µM (active)

SMILES: O=C(Nc1ccc(C(=O)N2CCCc3ccccc32)cc1)c1cccs1
- CC50 [7]: 35.4 µM (active)

- AC50 [8]: 1.2 µM (active)
SMILES: COc1ccc(N(C)S(=O)(=O)c2cccc(C(=O)Nc3nc(C)cs3)c2)cc1

SMILES: Nc1nc(Cc2ccccc2)nc(Cc2ccccc2)c1-c1ccccc1
- AC50 [11]: 1 µM (inconclusive)
- AC50 [4]: 3.16 µM (inconclusive)
- AC50 [12]: 3.16 µM (inconclusive)
- AC50 [5]: 6.31 µM (inconclusive)
- AC50 [13]: 3.16 µM (inconclusive)

- EC50 [9]: > 53 µM (inactive)
- IC50 [10]: > 47.1 µM (inactive)
SMILES: CN1CCN(CC(=O)Nc2cc(N(C)C)nc3ccccc23)CC1

SMILES: COC(=O)c1cc(C(=O)OCC(=O)N2c3ccccc3NC(=O)C2(C)C)cc([N+](=O)[O-])c1
- IC50 [6]: 10.8 µM (active)

- AC50 [8]: 4.82 µM (active)
SMILES: O=C1N=C(NO)S/C1=C\c1ccccc1-n1cccn1

- AC50 [8]: < 0.005 µM (active)
SMILES: COc1ccccc1NC(=O)c1c(NC(=O)CCC(=O)O)sc2c1CCCCC2

SMILES: CCOC(=O)c1cccc(NC(=O)CSc2nc3ccccc3c(=O)n2CCOC)c1
- IC50 [6]: > 79 µM (inactive)

- AC50 [8]: > 100 µM (inactive)
SMILES: CCCCC(NC(=O)Cc1c(C)c2cc3c(C)c(C)oc3c(C)c2oc1=O)C(=O)O (stereo not drawn)

SMILES: CC[C@H](C)[C@@H](C(=O)NCCCCCCCCCCC(=O)N1CCN(C(=O)OC(C)(C)C)CC1)n1cc(CCCCCNC(=O)OC(C)(C)C)nn1
- AC50 [1]: 4.08 µM (active)

SMILES: COc1cccc(C(=O)Nc2c(C(N)=O)oc3ccccc23)c1
- IC50 [6]: > 79 µM (inactive)

SMILES: Cc1onc(-c2ccccc2)c1C(=O)OCC(=O)Nc1ccc(C#N)cc1
- CC50 [7]: 8 µM (active)
